{"source": "patent US8431523B2", "about": "“Oligomeric biosurfactants in dermatocosmetic compositions” (priority 2006, dated 2013)", "key": {"[1]": {"test_system": "E. coli, P. aeruginosa, P. cepacia, S. aureus, including MRSA, S. epidermidis, and C. albicans", "type": "cell-based", "from_the_text": "By “antimicrobial” activity is meant the ability to inhibit the growth of at least one microbial organism selected from the group consisting E. coli, P. aeruginosa, S. aureus and C. albicans, as confirmed by optical density measurement (“OD”).\nBy “inhibition of growth” is meant reduction or absence of an increase greater than 5% in OD, a dimensionless measure of turbidity that is proportional to the amount of microbial cells present in a sample. For illustrative purposes, a OAB according to the present invention is added to a culture plate on which E. coli is present at a final concentration of about 5×10^3 cfu/ml. The plate is then incubated at about 37° C. for about 24 hours at which time the E. coli is resuspended by shaking, and OD is measured at about 600 nm. Thus, a reduction or absence of an increase greater than 5% in OD confirms the antimicrobial nature of the OAB with respect to E. coli.\nMinimum inhibitory concentration (“MIC”) is a method well-known to those of skill in the art for expressing antimicrobial activity. A compound to be tested is serially diluted into growth medium, inoculated with culture and then incubated. The MIC is the lowest dilution of compound that inhibits or prevents growth of the target microorganism.\nA further aspect of the present invention is directed to oligomeric acylated biosurfactants having a CMC of less than about 100 ppm in an aqueous environment of MEM Solution that reduces the surface tension of the MEM Solution to less than about […] where the OAB consists essentially of two to nine amino acid residues, at least one of which is charged, and has a MIC of less than 100 ppm for at least two of the following microorganisms: E. coli, P. aeruginosa, P. cepacia, S. aureus, including MRSA, S. epidermidis, and C. albicans. OABs meeting this criterion are selected from the group consisting of: Myr-GR-amide (P300); Myr-KK-amide (P315); Pal-HR-amide (P320); Myr-KK-acid (P347); SEQ ID NO 79 (P367); Myr-GHR-amide (P245); Pal-GHR-amide (P250); Myr-GRK-amide (P303); Pal-G-H—[R]^D-amide (P366); SEQ ID NO 84 (368); SEQ ID NO 58 (P370); SEQ ID NO 59 (P360); SEQ ID NO 60 (P373); SEQ ID NO 61 (P376); SEQ ID NO 62 (P369); SEQ ID NO 63 (P379); SEQ ID NO 64 (P381); SEQ ID NO 65 (P416); SEQ ID NO 66 (P383); and SEQ ID NO 67 (P289)."}, "[2]": {"test_system": "metabolic soluble proteins", "test": "CBQCA Protein Quantitation Assay (metabolic soluble protein)", "type": "cell-based", "description": "A first aspect of the present invention is directed to OABs having an ability to increase metabolic soluble proteins by at least about 20%. For purposes of the present invention, metabolic soluble protein is measured using the CBQCA Protein Quantitation Assay from Molecular Probes, Inc. (Eugene, Oreg.). This assay is based on aquinoline-2-carboxaldehyde derivative, which specifically reacts with primary amines to form conjugates capable of electrophoretic or chromatographic analysis. More specifically, in the presence of the cyanide anion, the quinoline-2-carboxaldehyde derivative reacts with primary amines, including those on proteins, and produces a highly-fluorescent emission at 550 nm."}}, "note": "Non-standard residues stand in square brackets, D forms with d. Residues, ends and D or L forms follow the SMILES beside them. *: point of attachment. Palmitoyl = CCCCCCCCCCCCCCCC(=O)*; Myristoyl = CCCCCCCCCCCCCC(=O)*", "data": [{"compound": "CCCCCCCCCCCCCC(=O)NCC(=O)N[C@@H](CCCNC(=N)N)C(=O)N[C@@H](CCCCN)C(N)=O", "note": "[P303, Myr-GRK-amide] (Myristoyl-Gly-Arg-Lys-NH2)", "values": [{"measurement": "MIC for at least two of the listed microorganisms", "setting": "[1]", "value": "less than 100 ppm"}]}, {"compound": "CCCCCCCCCCCCCC(=O)N[C@@H](CCCCN)C(=O)N[C@@H](CCCCN)C(N)=O", "note": "[P315, Myr-KK-amide]", "values": [{"measurement": "MIC for at least two of the listed microorganisms", "setting": "[1]", "value": "less than 100 ppm"}]}, {"compound": "CCCCCCCCCCCCCCCC(=O)N[C@@H](Cc1c[nH]cn1)C(=O)N[C@@H](CCCNC(=N)N)C(N)=O", "note": "[P320, Pal-HR-amide] (Palmitoyl-His-Arg-NH2)", "values": [{"measurement": "MIC for at least two of the listed microorganisms", "setting": "[1]", "value": "less than 100 ppm"}]}, {"compound": "CCCCCCCCCCCCCC(=O)N[C@@H](CCCCN)C(=O)N[C@@H](CCCCN)C(=O)O", "note": "[P347, Myr-KK-acid]", "values": [{"measurement": "MIC for at least two of the listed microorganisms", "setting": "[1]", "value": "less than 100 ppm"}]}, {"compound": "CCCCCCCCCCCCCC(=O)N[C@H](CCCCN)C(=O)N[C@@H](CCCCN)C(=O)N[C@H](C)C(=O)N[C@@H](CC(C)C)C(=O)N[C@H](CCCCN)C(N)=O", "note": "[P360, Myr-[K]^D-K-[A]^D-L-[K]^D-amide] (Myristoyl-[dK]K[dA]L[dK]-NH2)", "values": [{"measurement": "MIC for at least two of the listed microorganisms", "setting": "[1]", "value": "less than 100 ppm"}]}, {"compound": "CCCCCCCCCCCCCCCC(=O)NCC(=O)N[C@@H](Cc1c[nH]cn1)C(=O)N[C@H](CCCNC(=N)N)C(N)=O", "note": "[P366, Pal-G-H-[R]^D-amide] (Palmitoyl-Gly-His-[dR]-NH2)", "values": [{"measurement": "MIC for at least two of the listed microorganisms", "setting": "[1]", "value": "less than 100 ppm"}]}, {"compound": "CCCCCCCCCCCCCCCC(=O)N[C@@H](CCCCN)C(=O)N[C@H](CCCCN)C(N)=O", "note": "[P367, Pal-K-[K]^D-amide]", "values": [{"measurement": "MIC for at least two of the listed microorganisms", "setting": "[1]", "value": "less than 100 ppm"}]}, {"compound": "CCCCCCCCCCCCCC(=O)N[C@@H](CCCCN)C(=O)N[C@@H](CCCCN)C(=O)N[C@@H](C)C(=O)N[C@@H](CC(C)C)C(=O)N[C@@H](CCCCN)C(=O)N[C@@H](CCCCN)C(N)=O", "note": "[P369, Myr-KKALKK-amide] (Myristoyl-KKALKK-NH2)", "values": [{"measurement": "MIC for at least two of the listed microorganisms", "setting": "[1]", "value": "less than 100 ppm"}]}, {"compound": "CCCCCCCCCCCCCCCC(=O)N[C@@H](CC(C)C)C(=O)N[C@@H](C)C(=O)N[C@@H](CCCCN)C(=O)N[C@@H](CCCCN)C(N)=O", "note": "[P370, Pal-LAKK-amide] (Palmitoyl-LAKK-NH2)", "values": [{"measurement": "MIC for at least two of the listed microorganisms", "setting": "[1]", "value": "less than 100 ppm"}]}, {"compound": "CCCCCCCCCCCCCC(=O)N[C@@H](CCCCN)C(=O)N[C@@H](CCCCN)C(=O)N[C@@H](CO)C(=O)N[C@@H](CC(C)C)C(=O)N[C@@H](CCCCN)C(N)=O", "note": "[P373, Myr-KKSLK-amide] (Myristoyl-KKSLK-NH2)", "values": [{"measurement": "MIC for at least two of the listed microorganisms", "setting": "[1]", "value": "less than 100 ppm"}]}, {"compound": "CCCCCCCCCCCCCC(=O)N[C@@H](CC(C)C)C(=O)N[C@@H](C)C(=O)N[C@H](C(=O)N[C@@H](CCCCN)C(=O)N[C@@H](CCCCN)C(N)=O)[C@@H](C)CC", "note": "[P376, Myr-LAIKK-amide] (Myristoyl-LAIKK-NH2)", "values": [{"measurement": "MIC for at least two of the listed microorganisms", "setting": "[1]", "value": "less than 100 ppm"}]}, {"compound": "CCCCCCCCCCCCCC(=O)N[C@@H](CCCCN)C(=O)N[C@@H](CCCCN)C(=O)N[C@@H](C)C(=O)N[C@@H](CC(C)C)C(=O)N[C@@H](CCCCN)C(=O)N[C@@H](C)C(N)=O", "note": "[P379, Myr-KKALKA-amide] (Myristoyl-KKALKA-NH2)", "values": [{"measurement": "MIC for at least two of the listed microorganisms", "setting": "[1]", "value": "less than 100 ppm"}]}, {"compound": "CCCCCCCCCCCCCC(=O)N[C@@H](CC(C)C)C(=O)N[C@@H](CCCCN)C(=O)N[C@@H](CCCCN)C(=O)N[C@@H](C)C(=O)N[C@@H](CC(C)C)C(=O)N[C@@H](CCCCN)C(N)=O", "note": "[P381, Myr-LKKALK-amide] (Myristoyl-LKKALK-NH2)", "values": [{"measurement": "MIC for at least two of the listed microorganisms", "setting": "[1]", "value": "less than 100 ppm"}]}, {"compound": "CCCCCCCCCCCCCC(=O)N[C@@H](CO)C(=O)N[C@@H](CC(=O)O)C(=O)NCC(=O)N[C@@H](CCCNC(=N)N)C(N)=O", "note": "[P383, Myr-SDGR-amide] (Myristoyl-SDGR-NH2)", "values": [{"measurement": "MIC for at least two of the listed microorganisms", "setting": "[1]", "value": "less than 100 ppm"}]}, {"compound": "CCCCCCCCCCCCCC(=O)N[C@@H](CCCNC(=N)N)C(N)=O", "note": "[P391, Myr-R-amide]", "values": [{"measurement": "increases metabolic soluble protein (qualitative)", "setting": "[2]", "value": "increases metabolic soluble protein"}]}, {"compound": "CCCCCCCCCCCCCC(=O)N[C@H](C(=O)N[C@H](C(=O)N[C@H](C(=O)N[C@@H](CCCCN)C(=O)N[C@@H](CCCCN)C(=O)N[C@@H](CCCCN)C(N)=O)[C@@H](C)CC)[C@@H](C)CC)[C@@H](C)CC", "note": "[P416, Myr-IIIKKK-amide] (Myristoyl-IIIKKK-NH2)", "values": [{"measurement": "MIC for at least two of the listed microorganisms", "setting": "[1]", "value": "less than 100 ppm"}]}, {"compound": "Myr-III-amide [P420]", "values": [{"measurement": "increase metabolic soluble proteins", "setting": "[2]", "value": "at least 20%"}]}, {"compound": "Myr-RH-amide [P393]", "values": [{"measurement": "increases metabolic soluble protein (qualitative)", "setting": "[2]", "value": "increases metabolic soluble protein"}]}, {"compound": "Pal-KK-amide [P316]", "values": [{"measurement": "increases metabolic soluble protein (qualitative)", "setting": "[2]", "value": "increases metabolic soluble protein"}]}, {"compound": "Pal-RR-amide [P318]", "values": [{"measurement": "increases metabolic soluble protein (qualitative)", "setting": "[2]", "value": "increases metabolic soluble protein"}]}]}
